From patent publication US5710123A, “Peptide inhibitors of selectin binding” (Centocor, Inc., priority 1995, dated 1998) come the findings set out here.

Where a SMILES comes first, the peptide text is derived from it. Bridges are numbered along the chain shown (N, C = ends). Where no end group is shown, it is not given here.

What is called IC50 is the concentration at which inhibition is half-maximal. Read a high IC50 as weaker potency.

This experiment has as its target T1, P-selectin (Homo sapiens, UniProt P16109).
T1 construct: from tissue; host or cells: outdated human platelet packs from a blood bank
T1 sequence (P16109 42-830): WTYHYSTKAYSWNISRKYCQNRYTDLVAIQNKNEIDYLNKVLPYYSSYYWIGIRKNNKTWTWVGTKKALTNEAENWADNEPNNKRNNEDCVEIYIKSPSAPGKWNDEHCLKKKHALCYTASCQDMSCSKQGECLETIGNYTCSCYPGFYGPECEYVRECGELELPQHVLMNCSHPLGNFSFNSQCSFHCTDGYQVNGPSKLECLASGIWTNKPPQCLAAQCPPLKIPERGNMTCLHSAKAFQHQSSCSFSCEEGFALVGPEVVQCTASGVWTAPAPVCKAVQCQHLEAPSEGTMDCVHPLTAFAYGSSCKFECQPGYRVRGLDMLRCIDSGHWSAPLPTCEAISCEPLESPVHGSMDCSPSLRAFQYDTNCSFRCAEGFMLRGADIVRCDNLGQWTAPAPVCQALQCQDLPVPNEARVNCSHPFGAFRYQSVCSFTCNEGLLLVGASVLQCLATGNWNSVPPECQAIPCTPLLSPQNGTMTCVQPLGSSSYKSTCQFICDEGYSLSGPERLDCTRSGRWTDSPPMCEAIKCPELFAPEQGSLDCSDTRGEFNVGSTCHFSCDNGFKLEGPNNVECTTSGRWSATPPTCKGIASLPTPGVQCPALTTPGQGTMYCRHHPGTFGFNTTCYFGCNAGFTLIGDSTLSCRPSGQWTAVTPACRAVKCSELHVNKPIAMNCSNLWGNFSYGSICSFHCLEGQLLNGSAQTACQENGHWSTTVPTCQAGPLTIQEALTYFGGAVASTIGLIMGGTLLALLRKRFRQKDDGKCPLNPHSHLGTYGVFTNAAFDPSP
The experiment can be described thus: Inhibition of binding of human neutrophils to P-selectin (neutrophil adhesion to purified immobilized P-selectin, myeloperoxidase readout). It counts as cell-based. The conditions noted are these: P-selectin purified from human platelets, plated at 5 micrograms/mL, peptides tested 1.0 mM to 0.001 mM. The source says: Peptides can be screened for their ability to inhibit adhesion to cells, for example, neutrophil adhesion to purified P-selectin immobilized on plastic wells, using the assay described by Geng, et al., Nature 343, 757-760 1990). Human neutrophils are isolated from heparinized […] blood by density gradient centrifugation on Mono-Poly resolving media, Flow Laboratories. Neutrophil suspensions are greater than 98% pure and greater than 95% viable by trypan blue exclusion. For adhesion assays, neutrophils are suspended at a concentration of 2×10^6 cells/mL in Hanks' balanced salt solution containing 1.26 mM Ca^2+ and 0.81 mM Mg^2+ (HBSS, Gibco) with […] human serum albumin (HBSS/HSA). Adhesion assays are conducted in triplicate in 96-well microtiter plates, Corning, incubated at 4° C. overnight with 50 microliters of various protein solutions. P-selectin is isolated from human platelet lysates by immunoaffinity chromatography on antibody S12-Sepharose™ and ion-exchange chromatography on a Mono-Q™ column (FLPC, Pharmacia Fine Chemicals), as follows. Outdated human platelet packs (100 units) obtained from a blood bank and stored at 4° C. are pooled, adjusted to 5 mM EDTA at pH 7.5, centrifuged at 4,000 rpm for 30 minutes in 1 liter bottles, then washed three times with 1 liter of 0.1M NaCl, 20 mM Tris pH 7.5 (TBS), 5 mM EDTA, 5 mM benzamidine. The pellets are then resuspended in a minimum amount of wash buffer and made 1 mM in DIFP, then frozen in 50 mL screwtop tubes at -80° C. The frozen platelets are thawed and resuspended in 50 mL TBS, 5 mM benzamidine, 5 mM EDTA pH 7.5, […]. The suspension is frozen and thawed two times in a dry ice-acetone bath using a 600 mL lyophilizing flask, then homogenized in a glass/teflon mortar and pestle and made 1 mM in DIFP. The NaCl concentration is adjusted to 0.5M with a stock solution of 4M NaCl. After stirring the suspension at 4° C., it is centrifuged in polycarbonate tubes at 33,000 rpm for 60 minutes at 4° C. The supernatant (0.5M NaCl wash) is removed and saved; this supernatant contains the soluble form of P-selectin. Care is taken not to remove the top part of the pellet with the supernatant. The pellets are then homogenized in extraction buffer (TBS, 5 mM benzamidine, 5 mM EDTA, pH 7.5, 100 μM leupeptin, 2% Triton X-100). After centrifugation at 19,500 rpm for 25 minutes at 4° C., the supernatant is removed. The extraction procedure is repeated with the pellet and the supernatant is combined with the first supernatant. The combined extracts, which contain the membrane form of P-selectin, are adjusted to 0.5M NaCl. The soluble fraction (0.5M NaCl wash) and the membrane extract (also adjusted to 0.5M NaCl) are absorbed with separate pools of the monoclonal antibody S12 (directed to P-selectin) previously coupled to Affigel (Biorad) at 5 mg/mL for 2 hours at 4° C. After letting the resins settle, the supernatants are removed. The S12 Affigel containing bound GMP-140 is then loaded into a column and washed overnight at 4° C. with 400 mL of 0.5M NaCl, 20 mM Tris pH 7.5, 0.01% Lubrol PX. Bound P-selectin is eluted from the S12 Affigel with 100 mL of 80% ethylene glycol, 1 mM MES pH 6.0, 0.01% Lubrol PX. Peak fractions with absorbance at 280 nm are pooled. Eluates are dialyzed against TBS with 0.05% Lubrol, then applied to a Mono Q column (FPLC from Pharmacia). The concentrated protein is step eluted with 2M NaCl, 20 mM Tris pH 7.5 (plus 0.05% Lubrol PX for the membrane fraction). Peak fractions are dialyzed into TBS pH 7.5 (plus 0.05% Lubrol PX for the membrane fraction). P-selectin is plated at 5 micrograms/mL and the control proteins: human serum albumin (Alb), platelet glycoprotein IIb/IIIa (IIb), von Willsbrand factor (vWF), fibrinogen (FIB), thrombomodulin (TM), gelatin (GEL) or human serum (HS), are added at 50 micrograms/mL. […]

Take “Ac-SRKKLALCY-NH2 [SEQ ID NO: 63, Ac-SRKKLALCY--NH2]”: the IC50 was determined as 17 µM.
“Ac-SKKKAALCY-NH2 [SEQ ID NO: 23, Ac-SKKKAALCY--NH2]” gave an IC50 of 192 µM.
On to “LKKKHALCY-NH2 [SEQ ID NO: 11, LKKKHALCY--NH2]”, for which the half-inhibitory concentration (IC50) turned out to be 178 µM.
In turn, “QKKKLALCY-NH2 [SEQ ID NO: 17, QKKKLALCY--NH2]” gave a half-maximal inhibitory concentration (IC50) of 1010 µM.
“SKKKLAPCY-NH2 [SEQ ID NO: 42, SKKKLAPCY--NH2]” had an IC50 of 897 µM.
Under “SRKRLALCY-NH2 [SEQ ID NO: 66, SRKRLALCY--NH2]” stands 3 µM; under “FKKKLALCY-NH2 [SEQ ID NO: 8, FKKKLALCY--NH2]”, 20 µM; under “Ac-SKKKLALVY-NH2 [SEQ ID NO: 39, Ac-SKKKLALVY--NH2]”, 164 µM.
As to “Ac-SKKKLALIY-NH2 [SEQ ID NO: 34, Ac-SKKKLALIY--NH2]”, the IC50 was found to be 128 µM.
Under “SKKKLALCI-NH2 [SEQ ID NO: 30, SKKKLALCI--NH2]” stands 867 µM.
In turn, `CC(C)C[C@@H]1NC(=O)[C@H](C)NC(=O)[C@H](C)NC(=O)[C@H](CCCCN)NC(=O)[C@H](CC(C)C)NC(=O)[C@H](CCCCN)NC(=O)[C@H](Cc2c[nH]cn2)NC(=O)[C@@H](N)CSSC[C@@H](C(=O)N[C@@H](Cc2ccc(O)cc2)C(N)=O)NC1=O` [SEQ ID NO: 6, Cyclo-(cystinyl-histidyl-lysyl-leucyl-lysyl-alanyl-alanyl-leucyl-cystinyl)- tyrosine-amide] (H-CHKLKAALCY-NH2; disulfide 1-9) showed a concentration for half-maximal inhibition (IC50) of 2 µM.
Compound “SKKRLALCY-NH2 [SEQ ID NO: 50, SKKRLALCY--NH2]” showed a 50% inhibitory concentration (IC50) of 4 µM.
“SKKKLALCF-NH2 [SEQ ID NO: 29, SKKKLALCF--NH2]” came in with an IC50 of 65 µM.
Turning to “SKRRLALCY-NH2 [SEQ ID NO: 58, SKRRLALCY--NH2]”, the IC50 turned out to be 8 µM.
The result for “SHKKLALCY-NH2 [SEQ ID NO: 18, SHKKLALCY--NH2]” reads 362 µM.
The result for “SKFKLALCY-NH2 [SEQ ID NO: 20, SKFKLALCY--NH2]” reads 37 µM.
Regarding `CC(C)C[C@H](NC(=O)[C@H](C)NC(=O)[C@H](Cc1c[nH]cn1)NC(=O)[C@H](CCCCN)NC(=O)[C@H](CCCCN)NC(=O)[C@H](CCCCN)NC(=O)[C@H](CC(C)C)NC(=O)[C@@H](N)CS)C(=O)N[C@@H](CS)C(=O)N[C@@H](Cc1ccc(O)cc1)C(N)=O` [SEQ ID NO: 1, Cystinyl-leucyl-lysyl-lysyl-lysyl-histidyl-alanyl-leucyl-cystinyl-tyrosine- amide] (H-CLKKKHALCY-NH2), the half-maximal inhibitory concentration (IC50) came out at 269 µM.
For “SRKRLALSY-NH2 [SEQ ID NO: 67, SRKRLALSY--NH2]”, the half-maximal inhibitory concentration (IC50) turned out to be 586 µM.
The compound `CC(C)C[C@H](NC(=O)[C@H](C)NC(=O)[C@H](C)NC(=O)[C@H](CCCCN)NC(=O)[C@H](CC(C)C)NC(=O)[C@H](CCCCN)NC(=O)[C@H](Cc1c[nH]cn1)NC(=O)[C@@H](N)CS)C(=O)N[C@@H](CS)C(=O)N[C@@H](Cc1ccc(O)cc1)C(N)=O` [SEQ ID NO: 3, Cystinyl-histidyl-lysyl-leucyl-lysyl-alanyl-alanyl-leucyl-cystinyl-tyrosine-amide] (H-CHKLKAALCY-NH2) yielded a 50% inhibitory concentration (IC50) of 282 µM.
Consider “SKKKLILCY-NH2 [SEQ ID NO: 45, SKKKLILCY--NH2]”, for which the IC50 stood at 95 µM.
In turn, “Ac-HKKKLALCY-NH2 [SEQ ID NO: 9, Ac-HKKKLALCY--NH2]” came in with an IC50 of 11 µM.
